Source: PubChem BioAssay AID179 (DTP/NCI, 2004)
Calls of active or inactive are those of the source.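 The calls were made as follows: active = compounds giving half or more protection of infected cells from virus-caused growth loss, again on retest; inactive = the rest.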 Where a SMILES comes first, the peptide text is derived from it. The star is where a group is joined. Boc = CC(C)(C)OC(=O)*

Test system: CEM cells HIV-1 protection, formazan growth assay
Assay: NCI AIDS Antiviral Assay
Details: for IC50: measured here: growth of uninfected CEM cells
How it was run: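 Five concentrations of each compound were applied to infected and uninfected human CEM cells. Protection from HIV-1 was judged from growth measured with a soluble formazan assay.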

| Compound | EC50 [µM] | IC50 [µM] | outcome |
| --- | --- | --- | --- |
| OCC1CC(F)C(n2cnc3c(Br)ncnc32)O1 (centres undefined) | > 158 | 27.5 | – |
| ClC1=NSSC1(Cl)Cl | > 200 | 27.5 | – |
| CCCCCCC1CC(=O)C1(Cl)Cl (centres undefined) | – | – | inactive |
| CCOC(=O)NN(C(=O)OCC)C(C(=O)C1CCCCC1)N(NC(=O)OCC)C(=O)OCC | – | – | inactive |
| CC(=O)[O-].CC(=O)[O-].O=C(N/N=C/c1cc(Cl)cc(Cl)c1[OH2+])c1ccncc1.[Mn+2] | – | – | inactive |
| COc1ccc2[nH]c3c(c2c1)[C@H]1CCC(C(C)(C)C)C[C@H]1[C@H]1C(=O)N(c2ccccc2)C(=O)[C@@H]31 (some centres undefined) | > 7.94 | > 7.94 | – |
| CC(NC(=O)C(NC(=O)OC(C)(C)C)C(C)C)C(=O)NCC(=O)O (stereo not drawn) (Boc-Val-Ala-Gly-OH; configuration not given here) | > 200 | > 200 | – |
| O=[N+]([O-])c1ccc2nc(/C=C(\O)c3ccc(Cl)cc3)c(/C=C(\O)c3ccc(Cl)cc3)nc2c1 | > 200 | 89.1 | – |
| Cc1cc(O)cc(O)c1C(=O)O[C@]1(C)C(=O)C=C2C=C(/C=C/C(=O)O)OC=C2C1=O | – | – | inactive |
| Cc1nnc2n1N=C(CC(=O)c1ccc(O)cc1O)CN2N | > 832 | > 832 | – |
| C[C@]12CC[C@@H]3c4cc(I)c(O)cc4CC[C@H]3[C@@H]1CC[C@@H]2O | > 200 | 2.09 | – |
| Cn1c2ccccc2c(=O)c2[nH]c3ccccc3c21 | > 200 | 36.3 | – |
| CCc1cc(=O)oc2c3c(cc(OC(C)C)c12)O[C@H](C)[C@@H](C)C3=O | > 200 | 15.5 | – |
| O=C1c2cccc([N+](=O)[O-])c2C(=O)c2c1oc1ccc3ccccc3c21 | > 200 | > 200 | – |
| C[n+]1c(-c2ccc(/C=N\NC(=O)c3cncc(C(=O)N/N=C/c4ccc(-c5cn6ccccc6[n+]5C)cc4)c3)cc2)cn2ccccc21 | > 7.41 | > 7.41 | – |
| O=S(=O)(Oc1ccc2ccccc2c1-c1c(OS(=O)(=O)C(F)(F)F)ccc2ccccc12)C(F)(F)F | – | – | inactive |
| O=C(NC(=Nc1ccccc1)SCSC(=Nc1ccccc1)NC(=O)c1ccc(F)cc1)c1ccc(F)cc1 | > 200 | > 200 | – |
| Cc1cc2c(=O)[nH]nc(N)c2c(N)n1 | > 200 | > 200 | – |
| Cc1cc(CO)c(O)c(C(=O)CC2CC(=O)NC(=O)C2)c1 | > 200 | 57.5 | – |
| COC(=O)C1C(=O)C(C(=O)OC)C2(C)C(C(=O)OC)C(=O)C(C(=O)OC)C12C (centres undefined) | > 89.1 | 81.3 | – |
| CCOc1cc[n+](C(=C=[N-])C#N)cc1 | – | – | inactive |
| CN1C(=O)C2(C=CC(O)CC2)c2ccccc21 (centres undefined) | > 200 | > 200 | – |

| Compound | EC50 [µM] | IC50 [µM] | outcome |
| --- | --- | --- | --- |
| O=S(Cc1ccccc1)/C(=C/NC(=S)N=Nc1c(O)[nH]c2ccccc12)c1ccccc1 (centres undefined) | 58.9 | 178 | – |
| CCOC(=O)Oc1ccc2[nH]c3c(C)cc(N)c(C)c3c2c1 | > 93.3 | 39.8 | – |
| O=C1OCCN1CCO | > 200 | > 200 | – |
| CC(=O)O[C@@H]1CO[C@H]2O[C@H]3[C@@H](C(C=O)=C[C@H](O)[C@@H]4C5=C(C(C)C)CC[C@]5(C)CC[C@@]34C)[C@@]2(O)C1=O | > 0.575 | 0.0759 | – |
| COc1ccc(/C=C/C(=O)c2nc3ccccc3[nH]2)cc1 | > 200 | 3.98 | – |
| CC(C)NC(=O)CNC(=O)c1ccccc1SC(=O)CCCC[n+]1ccccc1 | > 0.575 | – | – |
| CC(C)CC(NC(=O)C(Cc1ccc(O)cc1)NC(=O)C(CO)NC(=O)C(C)NC(=O)C(CO)NC(=O)C(CCC(N)=O)NC(=O)C(NC(=O)C(N)CCC(=O)O)C(C)C)C(=O)NC(CCCN=C(N)N)C(=O)NC(CCCCN)C(=O)O (centres undefined) (H-EVQSASYLRK-OH; configuration not given here) | – | – | inactive |
| O=C(CSSCC(=O)c1ccccc1)c1ccccc1 | > 89.1 | 11 | – |
| Cc1cc(NS(=O)(=O)c2ccc(Nc3c4ccccc4nc4c(C(=O)NC=O)cccc34)cc2)no1 | > 200 | 12.3 | – |
| N#Cc1ccccc1CSc1ncnc2nc[nH]c12 | 12.3 | 105 | – |
| O=[N+]([O-])c1ccc2c(c1)Sc1ccccc1N2 | > 200 | 60.3 | – |
| COc1ccc(N2CCOCC2)cc1 | – | – | inactive |
| O=C1C2c3[nH]c4ccccc4c3C3CCC(c4ccccc4)CC3C2C(=O)N1c1ccccc1 (centres undefined) | – | – | inactive |
| O=C(O)c1nc2ccc(Cl)cc2[nH]c1=O | – | – | inactive |
| C=C1CCCCCCCCC/C=C/1SCCCSC | > 200 | > 200 | – |
| COc1nc(N)c(N(C(C)=O)C(C)=O)c(=O)[nH]1 | – | – | inactive |
| Cc1cc(C)n(-c2ccnc3cc(Cl)ccc23)n1 | > 501 | 214 | – |
| CC(=O)NCCC1CN(C(=O)/C=C\C#C[Si](C)(C)C)c2ccccc21 (centres undefined) | > 200 | 19.5 | – |
| CC1(C)C(=NO)C(C)(C)C1=NO | – | – | inactive |
| Nc1nc(Cl)nc(NCc2ccccc2)n1 | > 200 | > 200 | – |
| N.N.N.N.O=C([O-])C(=O)O.O=C([O-])C(=O)[O-].[Co+3] | – | – | inactive |
| N#CSC1CCCCCCC1SC#N (centres undefined) | > 200 | 10.5 | – |

| Compound | EC50 [µM] | IC50 [µM] | outcome |
| --- | --- | --- | --- |
| CCOc1c(Cc2ccccc2)c(=O)nc2c(-c3ccccc3)cncn12 | > 200 | 42.7 | – |
| Nc1nc(Cl)c(N)c(NCC2(CO)CC(OCc3ccccc3)C2)n1 (centres undefined) | > 20 | 2.14 | – |
| O=c1ccn(C2OC(CN(O)CCC3C(CO)OC(n4ccc(=O)[nH]c4=O)C3O)C(O)C2O)c(=O)[nH]1 (centres undefined) | > 200 | 126 | – |
| O=c1sccc2ccccc12 | > 417 | > 417 | – |
| NC(=O)NC(=O)c1cccs1 | > 200 | > 200 | – |
| CC1OC(OC2C(CO)OC(O[C@H]3CC[C@@]4(C)C(=CC[C@H]5[C@@H]6C[C@@H]7O[C@@]8(CC[C@H](C)CN8)[C@@H](C)[C@@H]7[C@@]6(C)CC[C@@H]54)C3)C(OC3OC(C)C(O)C(O)C3O)C2O)C(O)C(O)C1O (some centres undefined) | – | – | inactive |
| O=C(O)[C@@H]1C2C3CC4C2C4C3[C@@H]1C(=O)O | – | – | inactive |
| O=[N+]([O-])c1ccc([As](=O)(O)O)c2ccccc12 | > 200 | > 200 | – |
| CCOC(=O)/C(O)=C1\C(=O)N(C)C(=O)C1c1cccc(OC)c1 (centres undefined) | – | – | inactive |
| COC(=O)c1cc2c(n1S(=O)(=O)c1ccc(C)cc1)C(=O)C(=O)c1[nH]cc(C(=O)OCc3ccccc3)c1-2 | > 200 | 0.38 | – |
| CSC1=NN(C)C2(CCCCC2)C(=O)N1 | 13.8 | 575 | – |
| CC(C)C1=CC23CCC4C(C)(C(=O)O)CCCC4(C)C2CC1C1C(=O)N(c2ccccc2N2C(=O)C4C5CC6C7(C)CCCC(C)(C(=O)O)C7CCC6(C=C5C(C)C)C4C2=O)C(=O)C13 (centres undefined) | > 141 | 8.13 | – |
| CC(C)=CCc1cc(C2CC(=O)c3c(O)cc(O)cc3O2)cc(CC=C(C)C)c1O (centres undefined) | – | – | inactive |
| CCOP(=O)(OCC)/C(C#N)=C/c1cccc(C)c1 | > 339 | > 339 | – |
| Cc1ccccc1NC(=O)/C(C#N)=N\Nc1nc[nH]c1C(N)=O | > 200 | 0.257 | – |
| CC1CCC(NC(=O)N(CCCl)N=O)CC1 (centres undefined) | > 145 | > 145 | – |
| Cc1nc(N)nc2c1CCC(=O)N2 | > 56.2 | > 56.2 | – |
| Cc1[nH]n(C2=NCCN2)c(=O)c1Cc1ccccc1 | > 200 | > 200 | – |
| COC1=C(C)C(=O)c2nc(C)ccc2C1=O | – | – | inactive |
| COc1ccc(/C=C(/C#N)c2ccccc2)cc1 | > 200 | 2.09 | – |
| CCCCCOC(=O)C(=O)Nc1n[nH]nc1C(N)=O | > 200 | > 200 | – |
| O=C1c2ccccc2C(=O)C1(c1ccccn1)[N+](=O)[O-] | > 200 | 72.4 | – |

| Compound | EC50 [µM] | IC50 [µM] | outcome |
| --- | --- | --- | --- |
| COc1ccc2c(c1)CC1NC2Cc2ccccc21 (centres undefined) | – | – | inactive |
| CCC(=O)ONC(=O)Cn1ccc([N+](=O)[O-])n1 | > 200 | 66.1 | – |
| Cc1c(C#N)c2n(c1C)CCN2 | > 1550 | > 1550 | – |
| CN1CCN(CCCCN2c3ccccc3Sc3ccc(N=[N+]=[N-])cc32)CC1 | > 200 | 5.25 | – |
| Nn1c(-c2ccccc2)nc2ccc(Br)cc2c1=O | – | – | inactive |
| COc1ccc(-n2c(N)c(C#N)[nH]c2=O)cc1 | > 200 | > 200 | – |
| COc1ccc(C2c3ccccc3C3(O)CC2CC(=O)O3)cc1 (centres undefined) | > 200 | > 100 | – |
| O=C(/C=C/c1ccc(O)c(O)c1)OCCCc1ccccc1 | > 200 | 5.01 | – |
| COc1ccc(CN2COc3c(ccc4cccnc34)C2)cc1 | > 200 | 0.759 | – |
| Cc1cccc(SCc2nc3ccccc3c(C)[n+]2[O-])c1 | 13.5 | 52.5 | – |
| CCCCCC/C=C\CCCCCCCCCC1=C(CN2CCN(C)CC2)C(=O)C=C(OC)C1=O | > 200 | 1 | – |
| O=C1C(Br)=C(c2ccccc2)C(c2ccccc2)=C1c1ccccc1 | – | – | inactive |
| COc1ccc(C2Oc3ccc(O)cc3[C@@H]2C)cc1OC (some centres undefined) | > 174 | > 174 | – |
| COc1cc(C(O)C(O)c2cc(CN3CCOCC3)c(O)c(OC)c2)cc(CN2CCOCC2)c1O (centres undefined) | > 200 | > 200 | – |
| CCN(CC)CC(C(=O)Nc1c(C)cccc1C)/C(C)=N\NC(=O)c1ccncc1 (centres undefined) | > 33.1 | > 33.1 | – |
| COc1cccc(/C=N/[N-]C(=O)c2ccncc2)c1[O-].[Cu+2].[OH3+] | > 10.7 | > 10.7 | – |
| COc1ccc2c(c1)OC[C@@H]1c3cc(NS(=O)(=O)c4ccccc4)cc(OCc4ccccc4)c3O[C@H]21 | 10.2 | 13.5 | – |
| OC1CCN(Cc2ccccc2)C[C@@H]1CNC12CC3CC(CC(C3)C1)C2 (some centres undefined) | > 100 | 93.3 | – |
| N#CC(c1ccccc1)N(CCc1ccccc1)C(=O)c1ccccc1 (centres undefined) | > 126 | > 126 | – |
| COC1CC(COCc2ccccc2)CC(OC)O1 (centres undefined) | > 200 | 66.1 | – |
| CCOC1C(CC/C=C\c2ccccc2)CCCCN1C(=O)OC(C)(C)C (centres undefined) | > 251 | > 251 | – |
| CC(=O)OCC1OC([n+]2c([O-])cc(=O)n3ccsc32)C(OC(C)=O)C1OC(C)=O (centres undefined) | > 589 | > 589 | – |
